Laboratory results taken from patent US20090221567A1, “MUSCARINIC RECEPTOR AGONISTS, COMPOSITIONS, METHODS OF TREATMENT THEREOF, AND PROCESSES FOR PREPARATION THEREOF 177” (ASTRAZENECA AB, priority 2008, published 2009).

Key:
[1] = molecular target: T1, hM5 (human Muscarinic receptor subtype 5) (Homo sapiens, UniProt P08912); test: Human M5 calcium mobilization FLIPR assay; assay type: cell-based; conditions: receptor expressed in CHO cells, intracellular Ca2+ release
T1 construct: expressed in transfected cells; host or cells: CHO cells (Chinese hamster ovary cells, ATCC)
T1 sequence (P08912 1-532): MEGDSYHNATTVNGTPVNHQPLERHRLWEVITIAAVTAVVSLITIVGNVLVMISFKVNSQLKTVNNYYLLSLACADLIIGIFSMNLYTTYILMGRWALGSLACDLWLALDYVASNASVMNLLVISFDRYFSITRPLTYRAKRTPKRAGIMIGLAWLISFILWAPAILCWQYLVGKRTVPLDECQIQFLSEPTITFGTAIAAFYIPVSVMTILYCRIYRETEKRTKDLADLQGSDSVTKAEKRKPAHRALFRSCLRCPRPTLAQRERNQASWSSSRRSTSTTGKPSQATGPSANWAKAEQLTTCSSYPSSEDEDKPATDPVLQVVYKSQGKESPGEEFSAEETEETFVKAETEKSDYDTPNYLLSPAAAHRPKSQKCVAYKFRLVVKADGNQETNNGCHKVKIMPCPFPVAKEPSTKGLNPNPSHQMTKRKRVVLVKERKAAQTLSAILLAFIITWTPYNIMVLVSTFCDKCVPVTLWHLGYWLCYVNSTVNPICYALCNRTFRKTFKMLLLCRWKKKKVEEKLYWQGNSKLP
Procedure: The compound activity in the present invention (EC50 or IC50) is measured using a 384 plate-based imaging assay that monitors drug induced intracellular Ca^2+ release in whole cells. Activation of hM1 (human Muscarinic receptor subtype 1, gene bank access NM_000738), rM1 (rat Muscarinic receptor subtype 1, gene bank access NM_080773), hM3 (human Muscarinic receptor subtype 3, gene bank access NM_000740NM_000740) and hM5 (human Muscarinic receptor subtype 5, gene bank access NM_0121258), receptors expressed in CHO cells (Chinese hamster ovary cells, ATCC) is quantified in a Molecular Devices FLIPR IITM instrument as an increase in fluorescent signal. Inhibition of hM3 and hM5 by compounds is determined by the decrease in fluorescent signal in response to 2 nM acetylcholine activation.
Prior to experiment, the cell culture medium is removed from the plates by inversion. […] Plates are incubated at 37° C. for 60 minutes prior to start the experiment. The incubation is terminated by washing the cells four times in assay buffer, leaving a residual 25 μl buffer per well. Cell plates are then transferred to the FLIPR, ready for compound additions.
The day of experiment, acetylcholine and compounds are diluted in assay buffer in three-fold concentration range (10 points serial dilution) for addition by FLIPR instrument. For all calcium assays, a baseline reading is taken for 10 seconds followed by the addition of 12.5 μl of compounds, resulting in a total well volume of 37.5 μl. Data is collected every second for 60 pictures and then every 6 seconds for 20 pictures prior to the addition of agonist. For hM3 and hM5, before agonist addition, a second baseline reading is taken for 10 seconds followed by the addition of 12.5 μl of agonist or buffer, producing a final volume of 50 μl. After agonist stimulation, the FLIPR continues to collect data every second for 60 pictures and then every 6 seconds for 20 pictures. The fluorescence emission is read using filter 1 (emission 510-570 nm) by the FLIPR on board CCD camera.
Calcium mobilization output data are calculated as the maximal relative fluorescence unit (RFU) minus the minimal value for both compound and agonist reading frame (except for hM1 and rM1 using only the maximal RFU). Data are analyzed using sigmoidal fits of a non-linear curve-fitting program (XLfit version 4.2.2 Excel add-in version 4.2.2 build 18 math 1Q version 2.1.2 build 18). All pEC50 and pIC50 values are reported as arithmetic means±standard error of mean of ‘n’ independent experiments.

[2] = molecular target: T2, human M2 receptor (human Muscarinic receptor subtype 2) (Homo sapiens, UniProt P08172); test: hM2 receptor GTPγS binding; assay type: biochemical; conditions: CHO membranes, [35S]GTPγS binding
T2 construct: purchased Perkin-Elmer RBHM2M; host or cells: membranes from CHO cells expressing the cloned receptor
T2 sequence (P08172 1-466): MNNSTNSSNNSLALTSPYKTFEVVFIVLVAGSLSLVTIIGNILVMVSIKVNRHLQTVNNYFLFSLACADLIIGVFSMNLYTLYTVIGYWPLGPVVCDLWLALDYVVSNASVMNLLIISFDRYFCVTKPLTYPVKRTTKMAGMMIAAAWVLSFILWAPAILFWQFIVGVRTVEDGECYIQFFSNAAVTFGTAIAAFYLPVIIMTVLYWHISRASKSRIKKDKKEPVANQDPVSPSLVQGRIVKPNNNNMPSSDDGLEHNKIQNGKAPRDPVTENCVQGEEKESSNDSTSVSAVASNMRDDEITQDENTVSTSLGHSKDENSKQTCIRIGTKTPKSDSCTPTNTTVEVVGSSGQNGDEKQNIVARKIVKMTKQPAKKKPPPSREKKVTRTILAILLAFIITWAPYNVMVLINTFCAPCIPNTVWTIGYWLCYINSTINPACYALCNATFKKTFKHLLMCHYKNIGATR
Procedure: Membranes produced from Chinese hamster ovary cells (CHO) expressing the cloned human M2 receptor (human Muscarinic receptor subtype 2, gene bank access NM_000739), are obtained from Perkin-Elmer (RBHM2M). The membranes are thawed at 37° C., passed 3 times through a 23-gauge blunt-end needle, diluted in the GTPγS binding buffer (50 mM Hepes, 20 mM NaOH, 100 mM NaCl, 1 mM EDTA, 5 mM MgCl2, pH 7.4, 100 μM DTT). The EC50, IC50 and Emax of the compounds of the invention are evaluated from 10-point dose-response curves (three fold concentration range) done in 60 μl in 384-well non-specific binding surface plate (Corning). Ten microliters from the dose-response curves plate (5× concentration) are transferred to another 384 well plate containing 25 μl of the following: 5 μg of hM2 membranes, 500 μg of Flashblue beads (Perkin-Elmer) and GDP 25 μM. An additional 15 μl containing 3.3× (60,000 dpm) of GTPγ^35S (0.4 nM final) are added to the wells resulting in a total well volume of 50 μl. Basal and maximal stimulated [^35S]GTPγS binding are determined in absence and presence of 30 μM final of acetylcholine agonist. The membranes/beads mix are pre-incubated for 15 minutes at room temperature with 25 μM GDP prior to distribution in plates (12.5 μM final). The reversal of acetylcholine-induced stimulation (2 μM final) of [^35S]GTPγS binding is used to assay the antagonist properties (IC50) of the compounds. The plates are incubated for 60 minutes at room temperature then centrifuged at 400 rpm for 5 minutes. The radioactivity (cpm) is counted in a Trilux (Perkin-Elmer).
Values of EC50, IC50 and Emax are obtained using sigmoidal fits of a non-linear curve-fitting program (XLfit version 4.2.2 Excel add-in version 4.2.2 build 18 math 1Q version 2.1.2 build 18) of percent stimulated [^35S]GTPγS binding vs. log(molar ligand). All pEC50 and pIC50 values are reported as arithmetic means±standard error of mean of ‘n’ independent experiments.

SMILES	EC50 [1]	EC50 [2]
Cc1ccccc1C(=O)N1CCC(N2CCC(N3C(=O)CO[C@H]4CCCC[C@@H]43)CC2)CC1 [Example 11, (1S,6S)-10-[1-[1-(2-methylbenzoyl)-4-piperidyl]-4-piperidyl]-7-oxa-10-azabicyclo[4.4.0]decan-9-one]	> 40 µM	> 30 µM
CCOC(=O)N1CCC(C)(N2CCC(N3C(=O)NC[C@H]4CCCC[C@@H]43)CC2)CC1 [Example 7, Ethyl 4-[4-[(4aR,8aS)-2-oxo-3,4,4a,5,6,7,8,8a-octahydroquinazolin-1-yl]-1-piperidyl]-4-methyl-piperidine-1-carboxylate]	0.168 µM	0.07 µM
Cn1cccc1C(=O)N1CCC(N2CCC(N3C(=O)CO[C@H]4CCCC[C@@H]43)CC2)CC1 [Example 12, (1S,6S)-10-[1-[1-(1-methylpyrrole-2-carbonyl)-4-piperidyl]-4-piperidyl]-7-oxa-10-azabicyclo[4.4.0]decan-9-one]	> 40 µM	> 30 µM
CCOC(=O)N1CCC(C)(N2CCC(N3C(=O)CO[C@H]4CCCC[C@@H]43)CC2)C1 (single isomer, unassigned) [Example 19]	> 40 µM	> 40 µM
CC(C)OC(=O)N1CCC(N2CCC(N3C(=O)CO[C@@H]4CCCC[C@H]43)CC2)CC1 [Example 14, Propan-2-yl 4-[4-[(1R,6R)-9-oxo-7-oxa-10-azabicyclo[4.4.0]dec-10yl]-1-piperidyl]piperidine-1-carboxylate]	> 40 µM	> 30 µM
CCOC(=O)N1CCC(N2CCC(N3C(=O)OC[C@H]4CCCC[C@@H]43)CC2)CC1 [Example 15, Ethyl 4-[4-[(1S,6S)-9-oxo-8-oxa-10-azabicyclo[4.4.0]dec-10-yl]-1-piperidyl]piperidine-1-carboxylate]	> 40 µM	> 12 µM
CC(C)OC(=O)N1CCC(N2CCC(N3C(=O)CO[C@H]4CCCC[C@@H]43)CC2)CC1 [Example 10, Propan-2-yl 4-[4-[(1S,6S)-9-oxo-7-oxa-10-azabicyclo[4.4.0]dec-10-yl]-1-piperidyl]piperidine-1-carboxylate]	> 40 µM	> 6.6 µM
CCOC(=O)N1CCC(N2CCC(N3C(=O)NC[C@H]4CCCC[C@@H]43)CC2)CC1 [Example 1, Ethyl 4-[4-[(4aR,8aS)-2-oxo-3,4,4a,5,6,7,8,8a-octahydroquinazolin-1-y]-1-piperidyl]piperidine-1-carboxylate]	–	0.38 µM
Cc1ccccc1C(=O)N1CCC(N2CCC(N3C(=O)NC[C@H]4CCCC[C@@H]43)CC2)CC1 [Example 4, (4aR,8aS)-1-[1-[1-(2-methylbenzoyl)-4-piperidyl]-4-piperidyl]-3,4,4a,5,6,7,8,8a-octahydroquinazolin-2-one]	> 49.2 µM	> 30 µM
CC(C)OC(=O)N1CCC(N2CCC(N3C(=O)NC[C@H]4CCCC[C@@H]43)CC2)CC1 [Example 2, Propan-2-yl 4-[4-[(4aR,8aS)-2-oxo-3,4,4a,5,6,7,8,8a-octahydroquinazolin-1-yl]-1-piperidyl]piperidine-1-carboxylate]	> 49.2 µM	> 1.2 µM
CC(C)OC(=O)N1CCC(C)(N2CCC(N3C(=O)NC[C@H]4CCCC[C@@H]43)CC2)CC1 [Example 8, Propan-2-yl 4-[4-[(4aR,8aS)-2-oxo-3,4,4a,5,6,7,8,8a-octahydroquinazolin-1-yl]-1-piperidyl]-4-methyl-piperidine-1-carboxylate]	> 40 µM	> 30 µM
CCOC(=O)N1CCC(C)(N2CCC(N3C(=O)CO[C@H]4CCCC[C@@H]43)CC2)C1 (single isomer, unassigned) [Example 18]	> 40 µM	3.7 µM
CCOC(=O)N1CC[C@H](N2CCC(N3C(=O)CO[C@H]4CCCC[C@@H]43)CC2)C1 [Example 13, Ethyl (3S)-3-[4-[(1S,6S)-9-oxo-7-oxa-10-azabicyclo[4.4.0]dec-10-yl]-1-piperidyl]pyrrolidine-1-carboxylate]	> 40 µM	> 30 µM
O=C(C1CC1)N1CCC(N2CCC(N3C(=O)NC[C@H]4CCCC[C@@H]43)CC2)CC1 [Example 3, (4aR,8aS)-1-[1-[1-(cyclopropanecarbonyl)-4-piperidyl]-4-piperidyl]-3,4,4a,5,6,7,8,8a-octahydroquinazolin-2-one]	> 31.1 µM	> 12 µM
CCOC(=O)N1CCC(N2CCC(N3C(=O)CO[C@H]4CCCC[C@@H]43)CC2)CC1 [Example 9, Ethyl 4-[4-[(1S,6S)-9-oxo-7-oxa-10-azabicyclo[4.4.0]dec-10-yl]-1-piperidyl]piperidine-1-carboxylate]	0.0977 µM	2.5 µM
CC(C)OC(=O)N1CCC(N2CCC(N3C(=O)N(C)C[C@H]4CCCC[C@@H]43)CC2)CC1 [Example 6, Propan-2-yl 4-[4-[(4aR,8aS)-3-methyl-2-oxo-4a,5,6,7,8,8a-hexahydro-4H-quinazolin-1-yl]-1-piperidyl]piperidine-1-carboxylate]	> 40 µM	> 30 µM
